In US20150258082A1, “COMBINATION THERAPY WITH GLUTAMINASE INHIBITORS” (priority 2014, published 2015):
pIC50: −log10 of the molar value. Where two headings read alike, the source gives them in different places. One block for each compound: values may come before it.

Experiments:
P493-6 (myc "on") cells = assay: Cell Proliferation Assay, P493-6 cells, 72 hrs; format: cell-based
Procedure: For compound assay, P493-6 cells were plated in 96-well V-bottom plates on the day of compound addition in 50 μl of growth media at a cell density of 200,000 cells/ml (10,000 cells/well). Compounds were serially diluted in 100% DMSO at 200-times the final concentration. Compounds were diluted 100-fold into growth media and then 50 μl of this mixture was added to cell plates making the final concentration of DMSO 0.5%. Cells were incubated with compound for 72 hrs at 37° C. with 5% CO2 and analyzed for antiproliferative effects either by Cell Titer Glo (Promega) or FACS analysis using the Viacount (Millipore) kit on the Guava instrument.

[1] = target: T1, recombinant form of Glutaminase 1 (GAC) (Homo sapiens, UniProt O94925); assay: Recombinant Enzyme Assay (no preincubation); format: biochemical; conditions: read-out: GAC Delta N2 IC50 no preinc
T1 sequence (O94925 137-598 isoform O94925-3 limits assumed): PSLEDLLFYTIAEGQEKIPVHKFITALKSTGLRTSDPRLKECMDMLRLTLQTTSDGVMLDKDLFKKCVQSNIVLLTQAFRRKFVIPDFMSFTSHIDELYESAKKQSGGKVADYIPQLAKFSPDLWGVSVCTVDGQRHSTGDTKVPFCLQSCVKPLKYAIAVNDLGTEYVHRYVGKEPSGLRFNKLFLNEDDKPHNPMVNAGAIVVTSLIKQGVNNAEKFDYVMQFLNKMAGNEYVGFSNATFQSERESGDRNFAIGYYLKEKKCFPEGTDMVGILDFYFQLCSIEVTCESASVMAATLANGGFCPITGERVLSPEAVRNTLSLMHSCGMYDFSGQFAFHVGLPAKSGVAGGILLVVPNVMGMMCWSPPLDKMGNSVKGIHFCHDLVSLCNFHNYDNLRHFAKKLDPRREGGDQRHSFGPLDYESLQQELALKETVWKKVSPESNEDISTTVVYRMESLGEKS
Procedure: Compounds were assessed for their ability to inhibit the enzymatic activity of a recombinant form of Glutaminase 1 (GAC) using a biochemical assay that couples the production of glutamate (liberated by GAC) to glutamate dehydrogenase (GDH) and measuring the change in absorbance for the reduction of NAD^+ to NADH. […] Enzymatic reaction was started with the addition of 50 μL of enzyme solution (50 mM Tris-HCl pH 8.0, 0.2 mM EDTA, 150 mM K2HPO4, 0.1 mg/ml BSA, 1 mM DTT, 10 ppm antifoam, 4 units/ml GDH, 4 mM adenosine diphosphate, and 4 nM GAC) and read in a Molecular Devices M5 plate reader at 20° C. The plate reader was configured to read absorbance (λ=340 nm) in kinetic mode for 15 minutes. Data was recorded as milli-absorbance units per minute and slopes were compared to a control compound and a DMSO-only control on the same plate. Compounds with slopes less than the DMSO control were considered inhibitors and plate variability was assessed using the control compound.

[2] = target: T1, recombinant form of Glutaminase 1 (GAC); assay: Recombinant Enzyme Assay - Time Dependence (60 min preincubation); format: biochemical
Procedure: The enzyme/compound mix was sealed with sealing foil (USA Scientific) and allowed to incubate, with mild agitation, for 60 minutes at 20° C. Enzymatic reaction was started with the addition of 50 μL of substrate solution (50 mM Tris-HCl pH 8.0, 0.2 mM EDTA, 150 mM K2HPO4, 0.1 mg/ml BSA, 1 mM DTT, 20 mM L-glutamine, 2 mM NAD^+, and 10 ppm antifoam) and read in a Molecular Devices M5 plate reader at 20° C. The plate reader was configured to read absorbance (λ=340 nm) in kinetic mode for 15 minutes. Data was recorded as milli-absorbance units per minute and slopes were compared to a control compound and a DMSO-only control on the same plate. Compounds with slopes less than the DMSO control were considered inhibitors and plate variability was assessed using the control compound.

[3] = tested on: RPMI-8226 multiple myeloma xenograft; assay: Multiple myeloma xenograft study, compound 670 and lenalidomide; format: in vivo, mice; conditions: compound 670 200 mg/kg oral BID + lenalidomide 30 mg/kg oral QD, 24 days; P<0.0001 vs vehicle and lenalidomide alone, P<0.01 vs CB-839 alone
Procedure: Female scid/beige mice (n=40) age 7-8 weeks were implanted subcutaneously with 3×10^7 RPMI-8226 multiple myeloma cells per mouse mixed 1:1 with Matrigel. […] Tumors were measured with calipers three times per week and tumor volume calculated using the formula tumor volume (mm^3)=(a×b^2/2) where ‘b’ is the smallest diameter and ‘a’ is the largest perpendicular diameter. ****P-value<0.0001 (One-way ANOVA vs. vehicle and vs. Lenalidomide alone) **P-value<0.01 (One-way ANOVA vs. CB-839 alone).

[4] = tested on: MM1S cells and RPMI-8226 cells; assay: Combination of compound 670 with pomalidomide or lenalidomide, cell survival and combination index; format: cell-based; conditions: 72 hours; cells resistant to pomalidomide or lenalidomide or not; combination index by Calcusyn
Procedure: At the end of the incubation, cell viability was measured using Cell Titer Glo as per manufacturer's protocol (Promega, Madison, Wis.). Measured values for compound-treated cells were normalized to DMSO-treated cells and data is reported as a cell survival ratio with a value of 1 (one) corresponding to maximum cell survival and a value of 0 (zero) corresponding to no cell survival. Cell survival ratios for all compound treatments are represented as bar graphs. Combination indices were calculated using the Calcusyn program (biosoft.com) and reported for individual mixtures of compound 670 and either pomalidomide or lenalidomide. Compound mixtures that produced a synergistic anti-tumor activity are highlighted.

[5] = tested on: RPMI-8226 multiple myeloma xenograft; assay: Multiple myeloma xenograft study with CB-839, pomalidomide and combination; format: in vivo, mice; conditions: CB-839 200 mg/kg oral BID + pomalidomide 1 mg/kg oral QD; P<0.01
Procedure: Female scid/beige mice (age 7-9 weeks) were implanted subcutaneously with 1×10^7 RPMI-8226 myeloma cells mixed 1:1 with matrigel. Tumors were measured with calipers three times per week and tumor volume calculated using the formula tumor volume (mm^3)=(a×b^2/2) where ‘b’ is the smallest diameter and ‘a’ is the largest perpendicular diameter.

RPMI-8226 cells = assay: Anti-proliferative activity in multiple myeloma cell line RPMI-8226 (Cell Titer Glo, 72 hrs); format: cell-based
Procedure: Multiple myeloma cell lines RPMI-8226 and MM1S were seeded in 96-well plates at a density of 10,000 cells/well. […] Cells were incubated for 72 hrs at 37° C. with 5% CO2 and analyzed for antiproliferative effects by Cell Titer Glo (Promega). Cell proliferation (% of DMSO control) was determined by comparing the Cell Titer Glo signal (rfu) of compound 670-, lenalidomide-, or pomalidomide-treated cells versus DMSO treated cells. Cell viability (% DMSO of control) was plotted against compound concentration and resulting curves were fit using a four-parameter dose response to determine IC50 values.

[6] = P493-6, 72 h, read-out: Cell prolif P493 72h IC50, P493 cells, 72h

Structure (SMILES): O=C(OCCCN1CCOCC1)OCN(C(=O)Cc1ccccc1)c1nnc(CCSCCc2nnc(N(COC(=O)OCCCN3CCOCC3)C(=O)Cc3ccccc3)s2)s1 [compound 28]
pIC50 (P493-6 (myc "on") cells; [6]): 6.00

Structure (SMILES): O=C(Nc1nnc(CCSCCc2nnc(NC(=O)C(c3ccccc3)N3CCNCC3)s2)s1)C(c1ccccc1)N1CCNCC1 (centres unmarked) [compound 79]
pIC50 (P493-6 (myc "on") cells; [6]): 4.70

pIC50 [1]: < 4.70
Structure (SMILES): O=C(Nc1nnc(CCCCc2nnc(NC(=O)[C@@H]3CC3c3ccccc3)s2)s1)C1C[C@H]1c1ccccc1 (some centres unmarked) [compound 90]

pIC50 [1]: 6.00
Structure (SMILES): O=C(Cc1cccc(F)c1)Nc1nnc(CCCCc2nnc(NC(=O)C[C@@H](O)C(=O)O)s2)s1 [compound 153]
pIC50 (P493-6 (myc "on") cells; [6]): < 4.30

Structure (SMILES): C=C(C(=O)Nc1nnc(CCCCc2nnc(NC(=O)C(COC(=O)CCN3CCOCC3)c3ccccc3)s2)s1)c1ccccc1 (centres unmarked) [compound 281]
pIC50 (P493-6 (myc "on") cells; [6]): 6.18

Structure (SMILES): O=C(COC(C(=O)Nc1nnc(CCCCc2nnc(NC(=O)C(COC(=O)C3CCN(C(=O)OCc4ccccc4)CC3)c3ccccc3)s2)s1)c1ccccc1)C1CCN(C(=O)OCc2ccccc2)CC1 (centres unmarked) [compound 301]
pIC50 (P493-6 (myc "on") cells; [6]): 6.64

pIC50 [1]: 5.15
Structure (SMILES): O=C(COC(C(=O)Nc1nnc(CCCCc2nnc(NC(=O)C(COC(=O)C3CCNCC3)c3ccccc3)s2)s1)c1ccccc1)C1CCNCC1 (centres unmarked) [compound 302]
pIC50 (P493-6 (myc "on") cells; [6]): 6.06

Structure (SMILES): CCOc1ccc(C(O)C(=O)Nc2nnc(CCCCc3ccc(NC(=O)Cc4ccccc4)nn3)s2)cc1 (centres unmarked) [compound 558]
pIC50 (P493-6 (myc "on") cells; [6]): 7.55

pIC50 [2]: 8.40
Structure (SMILES): COC(=O)NCC1=CC(CC(=O)Nc2ccc(CCCCc3nnc(NC(=O)Cc4cccc(CNC(=O)OC)c4)s3)nn2)=CCC1 [compound 573]
pIC50 (P493-6 (myc "on") cells; [6]): 7.82

Structure (SMILES): O=C(Cc1cccc(OC(F)(F)F)c1)Nc1ccc(CCCCc2nnc(NC(=O)Cc3ccccn3)s2)nn1 [compound 670]
reduction in tumor size, combination with lenalidomide vs either agent alone [3]: greater reduction in tumor size
combination effect with lenalidomide in multiple myeloma cells [4]: synergizes
combination effect with pomalidomide in multiple myeloma cells [4]: synergizes
reduction in tumor size, combination with pomalidomide vs either agent alone [5]: greater reduction in tumor size
pIC50 (P493-6 (myc "on") cells; read-out: Cell prolif P493 72h IC50, P493 cells, 72h): 7.52

Structure (SMILES): O=C(Cc1ccc(Cl)c(CC(F)(F)F)c1)Nc1ccc(CCCCc2nnc(NC(=O)Cc3ccccn3)s2)nn1 [compound 721]
pIC50 (P493-6 (myc "on") cells; P493-6, 72 h, read-out: Cell prolif P493 72h IC50, P493-6 cells, 72 h): 7.66

Structure (SMILES): Nc1cccc2c1CN(C1CCC(=O)NC1=O)C2=O (centres unmarked) [lenalidomide]
sensitivity of RPMI-8226 myeloma cells to the agent (RPMI-8226 cells): resistant

Structure (SMILES): Nc1cccc2c1C(=O)N(C1CCC(=O)NC1=O)C2=O (centres unmarked) [pomalidomide]
sensitivity of RPMI-8226 myeloma cells to the agent (RPMI-8226 cells): resistant
